Columns and labels:
[1] = biological target: Epidermal growth factor receptor (Homo sapiens, UniProt P00533)
[2] = biological target: T1, Cytoplasmic tyrosine-protein kinase BMX (Homo sapiens, UniProt P51813)
T1 sequence (P51813 whole entry): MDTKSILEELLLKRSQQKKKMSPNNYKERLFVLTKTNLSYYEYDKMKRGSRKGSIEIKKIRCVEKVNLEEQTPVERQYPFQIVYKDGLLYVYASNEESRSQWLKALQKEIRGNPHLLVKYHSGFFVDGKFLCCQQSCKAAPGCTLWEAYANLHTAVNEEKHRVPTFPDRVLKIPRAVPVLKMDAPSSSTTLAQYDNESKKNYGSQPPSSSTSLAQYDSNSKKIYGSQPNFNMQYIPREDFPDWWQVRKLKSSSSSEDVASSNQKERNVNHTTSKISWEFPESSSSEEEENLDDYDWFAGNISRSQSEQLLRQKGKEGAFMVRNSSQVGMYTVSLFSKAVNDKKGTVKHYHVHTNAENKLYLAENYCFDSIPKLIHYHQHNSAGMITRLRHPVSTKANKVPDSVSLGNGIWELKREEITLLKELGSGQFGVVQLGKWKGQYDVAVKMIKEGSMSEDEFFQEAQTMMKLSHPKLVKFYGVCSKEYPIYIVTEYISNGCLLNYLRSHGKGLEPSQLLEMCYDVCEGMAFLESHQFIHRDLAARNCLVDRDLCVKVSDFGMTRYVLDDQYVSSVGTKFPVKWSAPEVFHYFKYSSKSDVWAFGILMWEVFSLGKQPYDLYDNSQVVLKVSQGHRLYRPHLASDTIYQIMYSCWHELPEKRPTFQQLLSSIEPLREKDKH

[3] = biological target: T2, Tyrosine-protein kinase ITK/TSK (Homo sapiens, UniProt Q08881)
T2 sequence (Q08881 whole entry): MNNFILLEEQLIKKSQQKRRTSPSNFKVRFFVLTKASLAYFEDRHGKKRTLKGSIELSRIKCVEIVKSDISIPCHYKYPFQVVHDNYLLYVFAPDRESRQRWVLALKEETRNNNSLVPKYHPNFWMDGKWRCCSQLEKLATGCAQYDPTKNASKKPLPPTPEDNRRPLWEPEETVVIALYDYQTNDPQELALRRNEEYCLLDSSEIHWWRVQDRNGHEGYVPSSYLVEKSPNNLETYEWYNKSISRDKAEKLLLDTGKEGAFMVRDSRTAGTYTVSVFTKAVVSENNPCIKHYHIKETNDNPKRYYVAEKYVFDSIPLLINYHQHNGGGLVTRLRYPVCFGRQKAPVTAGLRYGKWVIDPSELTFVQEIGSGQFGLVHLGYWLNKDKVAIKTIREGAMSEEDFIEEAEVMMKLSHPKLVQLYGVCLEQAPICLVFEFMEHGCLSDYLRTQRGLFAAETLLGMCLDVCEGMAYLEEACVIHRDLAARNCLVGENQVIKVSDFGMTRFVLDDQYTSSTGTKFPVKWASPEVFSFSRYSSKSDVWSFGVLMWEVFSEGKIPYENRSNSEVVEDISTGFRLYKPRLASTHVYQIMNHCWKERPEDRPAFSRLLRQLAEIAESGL

[4] = biological target: Focal adhesion kinase 1 (Homo sapiens, UniProt Q05397)
Chain of Focal adhesion kinase 1 (Q05397 whole entry): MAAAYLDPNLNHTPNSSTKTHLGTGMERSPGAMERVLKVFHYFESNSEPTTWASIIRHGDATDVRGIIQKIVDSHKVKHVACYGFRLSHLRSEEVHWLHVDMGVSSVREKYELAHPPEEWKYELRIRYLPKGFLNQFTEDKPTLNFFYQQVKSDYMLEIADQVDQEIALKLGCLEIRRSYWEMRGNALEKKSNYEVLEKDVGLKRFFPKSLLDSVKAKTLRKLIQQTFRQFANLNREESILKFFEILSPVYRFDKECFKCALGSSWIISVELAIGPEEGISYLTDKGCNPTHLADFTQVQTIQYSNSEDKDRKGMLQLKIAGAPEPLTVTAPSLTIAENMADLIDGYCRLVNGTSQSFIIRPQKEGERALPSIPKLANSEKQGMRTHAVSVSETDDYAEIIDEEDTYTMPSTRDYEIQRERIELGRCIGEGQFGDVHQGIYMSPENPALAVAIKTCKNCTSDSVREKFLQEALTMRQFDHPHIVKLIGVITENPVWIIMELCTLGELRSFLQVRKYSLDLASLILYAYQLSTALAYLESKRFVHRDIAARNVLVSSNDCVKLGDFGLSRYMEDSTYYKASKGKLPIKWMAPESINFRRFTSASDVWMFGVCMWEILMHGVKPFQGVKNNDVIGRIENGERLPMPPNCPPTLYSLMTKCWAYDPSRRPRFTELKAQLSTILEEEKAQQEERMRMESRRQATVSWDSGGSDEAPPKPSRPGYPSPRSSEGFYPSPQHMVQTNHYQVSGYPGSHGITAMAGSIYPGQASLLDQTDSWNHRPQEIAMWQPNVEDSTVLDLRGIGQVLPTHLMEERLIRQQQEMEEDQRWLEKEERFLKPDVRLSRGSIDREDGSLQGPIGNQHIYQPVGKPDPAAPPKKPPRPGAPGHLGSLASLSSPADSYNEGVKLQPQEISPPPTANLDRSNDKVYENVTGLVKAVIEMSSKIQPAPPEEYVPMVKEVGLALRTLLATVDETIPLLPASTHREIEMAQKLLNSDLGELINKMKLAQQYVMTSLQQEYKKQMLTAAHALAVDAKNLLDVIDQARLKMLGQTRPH

Chain of Epidermal growth factor receptor (P00533 whole entry): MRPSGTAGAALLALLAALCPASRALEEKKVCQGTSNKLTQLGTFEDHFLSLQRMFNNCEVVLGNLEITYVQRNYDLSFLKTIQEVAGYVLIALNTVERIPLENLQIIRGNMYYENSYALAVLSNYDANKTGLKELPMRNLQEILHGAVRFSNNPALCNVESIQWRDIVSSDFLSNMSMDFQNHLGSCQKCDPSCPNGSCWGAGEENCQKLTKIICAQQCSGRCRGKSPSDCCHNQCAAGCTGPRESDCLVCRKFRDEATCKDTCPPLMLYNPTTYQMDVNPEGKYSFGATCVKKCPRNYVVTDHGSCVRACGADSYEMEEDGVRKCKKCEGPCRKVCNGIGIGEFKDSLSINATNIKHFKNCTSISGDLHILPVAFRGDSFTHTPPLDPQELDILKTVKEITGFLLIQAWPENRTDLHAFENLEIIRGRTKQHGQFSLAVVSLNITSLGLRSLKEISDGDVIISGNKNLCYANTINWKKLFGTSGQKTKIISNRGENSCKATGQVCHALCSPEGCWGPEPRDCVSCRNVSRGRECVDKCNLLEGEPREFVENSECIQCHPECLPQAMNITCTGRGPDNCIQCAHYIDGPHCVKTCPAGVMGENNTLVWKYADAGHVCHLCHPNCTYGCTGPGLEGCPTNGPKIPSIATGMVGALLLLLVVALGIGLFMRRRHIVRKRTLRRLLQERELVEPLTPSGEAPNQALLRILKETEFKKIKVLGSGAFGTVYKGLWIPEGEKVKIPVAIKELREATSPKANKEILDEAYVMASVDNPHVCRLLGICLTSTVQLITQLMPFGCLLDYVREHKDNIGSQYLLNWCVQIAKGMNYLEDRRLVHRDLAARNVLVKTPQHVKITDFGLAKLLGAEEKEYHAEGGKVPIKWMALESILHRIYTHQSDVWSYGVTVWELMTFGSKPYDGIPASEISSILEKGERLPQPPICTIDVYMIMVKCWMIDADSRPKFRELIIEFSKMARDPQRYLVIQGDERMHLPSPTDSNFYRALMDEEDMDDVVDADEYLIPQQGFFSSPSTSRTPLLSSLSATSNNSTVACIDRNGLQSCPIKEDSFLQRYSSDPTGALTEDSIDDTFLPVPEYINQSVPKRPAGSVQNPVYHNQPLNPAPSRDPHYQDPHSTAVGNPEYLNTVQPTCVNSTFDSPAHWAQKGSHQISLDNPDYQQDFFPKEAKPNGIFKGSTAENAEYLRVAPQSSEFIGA

Row | Compound | IC50 [1] [nM] | IC50 [2] [nM] | IC50 [3] [nM] | IC50 [4] [nM]
1 | C=CC(=O)Nc1ccccc1Nc1nc(Nc2ccc(OCCCOC3(CC)OCC(C)(C)CO3)cc2)ncc1F | > 100 | > 100 | > 100 | > 100
2 | C=CC(=O)N1CCC[C@@H](Nc2nc(Nc3ccc(OCCCOC4(CC)OCC(C)(C)CO4)cc3)ncc2F)C1 | > 100 | < 100 | > 100 | > 100

From ChEMBL document CHEMBL5729309, “Substituted pyrimidines, pharmaceutical compositions and therapeutic methods thereof” (2022)
